Where two headings read alike, the source gives them in different places.
What was measured:
Format in all cases: cell-based
[1] = target: T1, PLK1 (Homo sapiens, UniProt P53350); test: Luciferase assay for PLK1 in HeLa LgBit (Plk1-HiBit KI) cell line; details: compound 300 nM, luminescence after 9 hours
T1 construct: endogenous in cells; host or cells: HeLa LgBit (Plk1-HiBit KI): HeLa stably expressing LgBit, with HiBit knocked in at the endogenous Plk1 locus by CRISPR/Cas9
Summary of the method: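 HeLa cells stably expressing LgBit, with HiBit knocked in at the endogenous Plk1 C-terminus, synchronized by 2 mM thymidine block for 24 h, then released and cultured 18 h. Compound added at 300 nM with Endurazine substrate; luminescence tracked in real time and expressed as ratio to DMSO.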

[2] = tested on: H526 cell line; test: Cell viability assay for NCI-H526 cell line (EZ-Cytox); details: Homo sapiens, NCI-H526, 120 h; H526 cells, 3-fold dilutions 3000 nM to 0.46 nM, 5 days
Summary of the method: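 NCI-H526 cells were exposed to compound in CO2 incubator culture for 5 days. Viability was read by EZ-Cytox absorbance at 450 nm after 3 min shaking, giving IC50 values.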

[3] = tested on: MRC-5 cell line; test: Cell viability assay for MRC-5 cell line (EZ-Cytox cytotoxicity experiment); details: Homo sapiens, MRC5, 120 h, MRC-5 normal cell line, 5 days
Protocol: 4. Cell Viability Assay for MRC-5 Cell Line
(1) Culture of MRC-5 Cell Line
Passage of cultured cells was maintained within P15.
(2) Treatment of Compounds of the Present Invention
Then, it was cultured in 37° C.
(3) Cytotoxicity Experiment
CO2 incubator for 4 hours.

[4] = highest concentration 10000 nM, N.D. = no cytotoxicity until 10 μM, read-out: Activity: IC50 value to MRC-5 cell line, N.D. cells
[5] = 3-fold dilutions 10000 nM to 1.52 nM, Exemplary Compounds, numeric values, read-out: Activity: IC50 value (nM) to MRC-5 cell line

T1 sequence (P53350 whole entry): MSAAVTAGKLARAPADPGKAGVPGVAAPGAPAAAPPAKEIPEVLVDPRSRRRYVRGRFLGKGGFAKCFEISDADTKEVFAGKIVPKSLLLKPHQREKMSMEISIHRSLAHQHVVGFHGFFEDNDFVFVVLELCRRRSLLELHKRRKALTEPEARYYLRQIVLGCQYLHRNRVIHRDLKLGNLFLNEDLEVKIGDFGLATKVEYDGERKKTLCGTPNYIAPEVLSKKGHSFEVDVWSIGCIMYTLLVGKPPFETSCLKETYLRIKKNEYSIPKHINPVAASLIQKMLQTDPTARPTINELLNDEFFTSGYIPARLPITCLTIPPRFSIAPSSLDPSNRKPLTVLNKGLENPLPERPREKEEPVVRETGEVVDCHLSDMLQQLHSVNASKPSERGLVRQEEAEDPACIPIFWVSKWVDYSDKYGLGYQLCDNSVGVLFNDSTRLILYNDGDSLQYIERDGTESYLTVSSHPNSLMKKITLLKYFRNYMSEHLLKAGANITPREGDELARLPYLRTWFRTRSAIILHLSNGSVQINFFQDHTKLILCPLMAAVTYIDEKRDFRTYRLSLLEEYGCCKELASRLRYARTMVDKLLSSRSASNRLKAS

Structure (SMILES) | Activity: ratio of the luminescence value of each Exemplary Compound treatment group to DMSO treatment group [1] | IC50 [2] [nM] | IC50 [3, 4] [nM] | IC50 [3, 5] [nM]
COc1cc(C(=O)NC2CCC(N(C)CC3CCN(c4ccc(NC5CCC(=O)NC5=O)cc4F)CC3)CC2)ccc1Nc1ncc2c(n1)N(C1CCCC1)CC(F)(F)C(=O)N2C (stereo not drawn) [Compound 34, 4-((9-cyclopentyl-7,7-difluoro-5-methyl-6-oxo-6,7,8,9-tetrahydro-5H-pyrimido[4,5-b][1,4]diazepin-2-yl)amino)-N-((1r,4r)-4-(((1-(4-((2,6-dioxopiperidin-3-yl)amino)-2-fluorophenyl)piperidin-4-yl)methyl)(methyl)amino)cyclohexyl)-3-methoxybenzamide] | +++ (+++: <0.3) | < 30 | > 10000 | 
COc1cc(C(=O)NC2CCN(C(=O)CCN3CCN(c4cccc(NC5CCC(=O)NC5=O)c4)CC3)CC2)ccc1Nc1ncc2c(n1)N(C1CCCC1)CC(F)(F)C(=O)N2C (stereo not drawn) [Compound 14, 4-((9-cyclopentyl-7,7-difluoro-5-methyl-6-oxo-6,7,8,9-tetrahydro-5H-pyrimido[4,5-b][1,4]diazepin-2-yl)amino)-N-(1-(3-(4-(3-((2,6-dioxopiperidin-3-yl)amino)phenyl)piperazin-1-yl)propanoyl)piperidin-4-yl)-3-methoxybenzamide] | ++ (++<0.6) | < 30 | > 10000 | 
COc1cc(C(=O)NN2CCC(CN3CCN(c4ccc(NC5CCC(=O)NC5=O)cc4Cl)CC3)CC2)ccc1Nc1ncc2c(n1)N(C(C)C)CC(F)(F)C(=O)N2C (stereo not drawn) [Compound 19, N-(4-((4-(2-chloro-4-((2,6-dioxopiperidin-3-yl)amino)phenyl)piperazin-1-yl)methyl)piperidin-1-yl)-4-((7,7-difluoro-9-isopropyl-5-methyl-6-oxo-6,7,8,9-tetrahydro-5H-pyrimido[4,5-b][1,4]diazepin-2-yl)amino)-3-methoxybenzamide] | + (+<0.7) | < 50 | > 10000 | 
COc1cc(C(=O)NN2CCC(CN3CCN(c4cccc(C(=O)NC5CCC(=O)NC5=O)c4)CC3)CC2)ccc1Nc1ncc2c(n1)N(C1CCCC1)CC(F)(F)C(=O)N2C (stereo not drawn) [Compound 9, 4-((9-cyclopentyl-7,7-difluoro-5-methyl-6-oxo-6,7,8,9-tetrahydro-5H-pyrimido[4,5-b][1,4]diazepin-2-yl)amino)-N-(4-((4-(3-((2,6-dioxopiperidin-3-yl)carbamoyl)phenyl)piperazin-1-yl)methyl)piperidin-1-yl)-3-methoxybenzamide] | ++ (++<0.6) | < 50 | > 10000 | 
COc1cc(C(=O)NN2CCC(N3CC4(CCN(c5ccc(N(C)C6CCC(=O)NC6=O)cc5F)CC4)C3)CC2)ccc1Nc1ncc2c(n1)N(C(C)C)CC(F)(F)C(=O)N2C (stereo not drawn) [Compound 33, 4-((7,7-difluoro-9-isopropyl-5-methyl-6-oxo-6,7,8,9-tetrahydro-5H-pyrimido[4,5-b][1,4]diazepin-2-yl)amino)-N-(4-(7-(4-((2,6-dioxopiperidin-3-yl)(methyl)amino)-2-fluorophenyl)-2,7-diazaspiro[3.5]nonan-2-yl)piperidin-1-yl)-3-methoxybenzamide] | ++ (++<0.6) | < 50 |  | 25000
COc1cc(C(=O)NC2CC3(CCN(CC4CCN(c5ccc(NC6CCC(=O)NC6=O)cc5F)CC4)CC3)C2)ccc1Nc1ncc2c(n1)N(C(C)C)CC(F)(F)C(=O)N2C (stereo not drawn) [Compound 24, 4-((7,7-difluoro-9-isopropyl-5-methyl-6-oxo-6,7,8,9-tetrahydro-5H-pyrimido[4,5-b][1,4]diazepin-2-yl)amino)-N-(7-((1-(4-((2,6-dioxopiperidin-3-yl)amino)-2-fluorophenyl)piperidin-4-yl)methyl)-7-azaspiro[3.5]nonan-2-yl)-3-methoxybenzamide] | +++ (+++: <0.3) | < 30 |  | 23200
COc1cc(C(=O)NC2CC3(CCN(CC4CCN(c5cccc6c5n(C)c(=O)n6C5CCC(=O)NC5=O)CC4)CC3)C2)ccc1Nc1ncc2c(n1)N(C(C)C)CC(F)(F)C(=O)N2C (stereo not drawn) [Compound 38, 4-((7,7-difluoro-9-isopropyl-5-methyl-6-oxo-6,7,8,9-tetrahydro-5H-pyrimido[4,5-b][1,4]diazepin-2-yl)amino)-N-(7-((1-(1-(2,6-dioxopiperidin-3-yl)-3-methyl-2-oxo-2,3-dihydro-1H-benzo[d]imidazol-4-yl)piperidin-4-yl)methyl)-7-azaspiro[3.5]nonan-2-yl)-3-methoxybenzamide] | ++ (++<0.6) | < 30 |  | 3960

Source: US20250101025A1, “NOVEL PLK1 DEGRADATION INDUCING COMPOUND” (UPPTHERA, INC., priority 2021, published 2025)
